Results from publication PMC11597774, “Investigation of Antimicrobial and Anti-Inflammatory Efficacy of Newly Synthesized Pyrogallol-Coumarin Hybrids: In Vitro and In Silico Studies” (Pharmaceutics, 2024).
≈ marks a conversion by molar mass, not a printed value.

Legend:
[1] = biological target: T1, Soybean lipoxygenase (Type I-B) (Glycine max, UniProt P08170); test: In vitro LOX inhibition assay; type: biochemical; details: for inhibition at 25 µM / inhibition at 50 µM / inhibition at 100 µM: read-out: Anti-LOX Activity (%); for IC50: sodium linoleate substrate, tris buffer pH 9, read-out: IC50 (µM), in vitro lipoxygenase inhibitory activity
T1 construct: purchased Merck (KGaA, Darmstadt, Germany)
T1 sequence (P08170 1-839): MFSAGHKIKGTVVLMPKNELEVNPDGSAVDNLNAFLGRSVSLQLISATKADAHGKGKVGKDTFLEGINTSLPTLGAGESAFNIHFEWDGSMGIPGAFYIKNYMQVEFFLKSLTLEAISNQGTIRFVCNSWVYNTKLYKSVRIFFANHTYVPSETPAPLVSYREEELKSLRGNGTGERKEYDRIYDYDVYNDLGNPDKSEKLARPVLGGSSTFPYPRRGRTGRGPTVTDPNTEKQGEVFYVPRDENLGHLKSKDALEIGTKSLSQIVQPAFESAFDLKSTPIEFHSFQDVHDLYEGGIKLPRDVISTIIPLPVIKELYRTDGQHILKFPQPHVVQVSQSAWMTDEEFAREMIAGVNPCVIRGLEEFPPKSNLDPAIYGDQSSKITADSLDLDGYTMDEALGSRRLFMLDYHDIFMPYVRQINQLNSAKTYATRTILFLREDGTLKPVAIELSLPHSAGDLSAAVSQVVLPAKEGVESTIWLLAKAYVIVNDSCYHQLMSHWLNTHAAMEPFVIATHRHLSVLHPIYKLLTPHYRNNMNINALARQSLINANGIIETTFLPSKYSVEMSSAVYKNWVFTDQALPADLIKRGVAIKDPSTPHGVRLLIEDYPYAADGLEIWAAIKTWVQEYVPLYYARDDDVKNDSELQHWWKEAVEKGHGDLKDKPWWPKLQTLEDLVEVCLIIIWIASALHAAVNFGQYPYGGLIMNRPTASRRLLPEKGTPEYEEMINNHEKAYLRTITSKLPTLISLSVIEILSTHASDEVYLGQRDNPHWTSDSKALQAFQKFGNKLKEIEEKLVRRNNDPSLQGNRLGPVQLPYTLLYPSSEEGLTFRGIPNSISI
Excerpt: Soybean lipoxygenase (Type I-B) is a very often used enzyme for the investigation of anti-inflammatory properties of compounds [38]. The LOX inhibition assay measures the rate of oxidation of linoleic acid by lipoxygenase, which results in the formation of a colorless product that can be detected spectrophotometrically. This enzyme catalyzes the conversion of linoleic acid into hydroperoxy fatty acids and results in increased absorbance at 234 nm. The tested compounds dissolved in DMSO were incubated at room temperature with sodium linoleate (3 mM in tris buffer pH = 9) and enzyme solution (5 × 10^3 units/mL in saline). The activity for each tested compound was presented as IC50 value ± standard deviation (SD) of three independent measurements.

[2] = test system: S. boulardii; test: Microdilution MIC/MMC with resazurin; type: cell-based, Saccharomyces boulardii
Description: (§1) The antimicrobial activity of PCH-1 and PCH-2 was tested against 13 microorganisms. The experiment included four standard strains, Staphylococcus aureus ATCC 6538, Bacillus subtilis ATCC 6633, Proteus mirabilis ATCC 12453, and Pseudomonas aeruginosa ATCC 27853; five isolates, Staphylococcus aureus, Escherichia coli, Salmonella enterica, Klebsiella pneumoniae, and Bacillus subtilis; and one probiotic strain Lactobacillus plantarum 299V. Additionally, three fungal strains were tested, including one standard strain, Candida albicans ATCC 10231, and two isolates, Saccharomyces cerevisiae and probiotic strain Saccharomyces boulardii.
(§2) The bacterial suspensions were prepared using the direct colony method. The turbidity of the initial suspension was adjusted using a densitometer (DEN-1, BioSan, Latvia). When adjusted to the turbidity of the 0.5 McFarland standard, the bacterial suspension contains approximately 10^8 colony-forming units (CFU)/mL, and the yeast suspension contains approximately 10^6 CFU/mL. For the experiment, the initial suspension was further diluted at a 1:100 ratio in a sterile 0.85% saline solution.
(§3) The antimicrobial activity was assessed by determining the minimum inhibitory concentrations (MICs) and minimum microbicidal concentrations (MMCs) using the microdilution plate method with resazurin (Alfa Aesar GmbH & Co. (KG, Karlsruhe, Germany)). For this, 96-well plates were prepared by adding 100 μL of Mueller Hinton broth (Torlak, Belgrade, Serbia) for bacterial tests and Sabouraud broth (Torlak, Belgrade, Serbia) for yeast into each well. The tested PCH-1 and PCH-2 were dissolved in 10% dimethyl sulfoxide (DMSO) and then diluted into sterile distilled water. A 100 μL sample from the stock solution of the tested compound was then added to the first row of the plate, followed by twofold serial dilutions using a multichannel pipette. This produced a concentration range from 2.69 to 0.0025 µmol/L. The method is described in detail in the reported paper.
(§4) Each test setup included growth control and sterility control. […] Minimum microbicidal concentrations (MMCs) were determined as described in detail in the reported paper.

[3] = test system: C. albicans ATCC 10231; test: Microdilution MIC/MMC with resazurin; type: cell-based, Candida albicans
Description: as §1, §2, §3, §4

[4] = test system: S. cerevisiae; test: Microdilution MIC/MMC with resazurin; type: cell-based, Saccharomyces cerevisiae
Description: as §1, §2, §3, §4

[5] = test system: E. coli; test: Microdilution MIC/MMC with resazurin; type: cell-based, Escherichia coli
Description: as §1, §2, §3, §4

[6] = test system: L. plantarum 299V; test: Microdilution MIC/MMC with resazurin; type: cell-based, Lactobacillus plantarum
Description: as §1, §2, §3, §4

[7] = test system: P. mirabilis ATCC 12453; test: Inhibition of biofilm formation (crystal violet); type: cell-based, Proteus mirabilis
Description: (§5) The ability of S. aureus ATCC 6538, P. mirabilis ATCC 12453, and P. aeruginosa ATCC 27853 to form biofilms was assayed as described by O’Toole et al. (2000), with some modifications. Briefly, tissue culture 96-well microtiter plates (Sarstedt, Germany) were prepared by dispensing 100 µL of nutrient broth (i.e., Mueller Hinton broth) into each well. Then, 10 µL of spore suspension (1.0 McFarland for Gram-positive bacteria and 0.5 McFarland for Gram-negative bacteria) was added to each row. To encourage biofilm formation, all plates were incubated at 37 °C for 48 h, after which the content of each well was emptied and washed twice with 200 µL of sterile 0.85% saline to remove non-adherent cells. The biofilms formed were fixed by adding 100 µL of methanol until it evaporated completely, then stained with 0.1% (w/v) crystal violet (Fluka AG, Buchs, Switzerland) and left at room temperature for 20 min. The excess stain was washed away with deionized water, followed by […] of 96% ethanol. The optical densities (ODs) of the stained biofilms were measured with an ELISA plate reader (RT-2100C, Rayto, Shenzhen, China) at 630 nm. Control wells containing only broth were included to verify sterility and prevent nonspecific media binding. To account for background absorbance, OD readings from sterile medium, fixative, and dye were averaged and subtracted from all test measurements. All tests were conducted in duplicate. The tissue culture 96-well microtiter plates (Sarstedt, Germany) were prepared by dispensing 100 µL of nutrient broth (i.e., Mueller Hinton broth) into each well. From the stock solutions of tested PCH-1 and PCH-2 (at a concentration of 5.4 µmol/L), 100 µL was added to the first row of the microtiter plate. Twofold serial dilutions were then performed, followed by the addition of 10 µL of bacterial suspension to each well. The turbidity of the bacterial suspension was 0.5 McFarland for Gram-negative bacteria and 1.0 McFarland for Gram-positive bacteria. The microtiter plates prepared in this way were incubated at 37 °C for 48 h. The remaining steps of the experiment were carried out as outlined below. […] Only broth or broth with tested PCH-1 and PCH-2 served as controls to check sterility and nonspecific binding of media. To compensate for background absorbance, OD readings from sterile medium, extracts, fixative, and dye were averaged and subtracted from all test values. All tests were performed in duplicate.

[8] = test system: P. aeruginosa ATCC 27853; test: Microdilution MIC/MMC with resazurin; type: cell-based, Pseudomonas aeruginosa
Description: as §1, §2, §3, §4

[9] = test system: P. aeruginosa ATCC 27853; test: Inhibition of biofilm formation (crystal violet); type: cell-based, Pseudomonas aeruginosa
Description: as §5

[10] = test system: S. enterica; test: Microdilution MIC/MMC with resazurin; type: cell-based, Salmonella enterica; details: S. enterica
Description: as §1, §2, §3, §4

[11] = test system: P. mirabilis ATCC 12453; test: Microdilution MIC/MMC with resazurin; type: cell-based, Proteus mirabilis
Description: as §1, §2, §3, §4

[12] = test system: K. pneumoniae; test: Microdilution MIC/MMC with resazurin; type: cell-based, Klebsiella pneumoniae
Description: as §1, §2, §3, §4

[13] = test system: S. aureus (isolate); test: Microdilution MIC/MMC with resazurin; type: cell-based, Staphylococcus aureus
Description: as §1, §2, §3, §4

[14] = test system: S. aureus ATCC 25923; test: Inhibition of biofilm formation (crystal violet); type: cell-based, Staphylococcus aureus
[15] = test system: B. subtilis ATCC 6633; test: Microdilution MIC/MMC with resazurin; type: cell-based, Bacillus subtilis
Description: as §1, §2, §3, §4

[16] = test system: B. subtilis (isolate); test: Microdilution MIC/MMC with resazurin; type: cell-based, Bacillus subtilis
Description: as §1, §2, §3, §4

[17] = test system: S. aureus ATCC 25923; test: Microdilution MIC/MMC with resazurin; type: cell-based, Staphylococcus aureus

Structure (SMILES): NNC(=O)c1ccc(O)c(O)c1O [H-1, 2,3,4-trihydroxybenzohydrazide]
- inhibition at 25 µM [1]: 21.6 ± 1.4%
- inhibition at 40 µM [1]: 33.9 ± 0.8%
- inhibition at 50 µM [1]: 37.8 ± 1%
- inhibition at 75 µM [1]: 57.5 ± 1.1%
- inhibition at 100 µM [1]: 73.5 ± 0.6%
- IC50 [1]: 65.4 ± 0.6 µM

Structure (SMILES): OC(Cn1cncn1)(Cn1cncn1)c1ccc(F)cc1F [Fluconazole, fluconazole, reference compound]
- MMC [2]: 0.1 mM
- MIC ([2]; Saccharomyces cerevisiae): 25 µM (≈ 7.66 µg/mL)
- MMC [3]: 0.2 mM
- MIC ([3]; Candida albicans, ATCC10231): 100 µM (≈ 30.6 µg/mL)
- MMC [4]: 0.025 mM
- MIC ([4]; Saccharomyces cerevisiae): 25 µM (≈ 7.66 µg/mL)

Structure (SMILES): CC(=O)c1c(O)c2ccccc2oc1=O [3AcHyC, 3-acetyl-4-hydroxycoumarin]
- inhibition at 25 µM [1]: 26.4 ± 1.3%
- inhibition at 40 µM [1]: 35.8 ± 0.8%
- inhibition at 50 µM [1]: 43.5 ± 3.1%
- inhibition at 75 µM [1]: 63.4 ± 0.4%
- inhibition at 100 µM [1]: 81.2 ± 0.2%
- IC50 [1]: 57.9 ± 1.6 µM

Structure (SMILES): CN(C)[C@@H]1C(O)=C(C(N)=O)C(=O)[C@@]2(O)C(O)=C3C(=O)c4c(O)cccc4[C@@](C)(O)[C@H]3C[C@@H]12 [Tetracycline, reference compound]
- MMC [5]: 0.01 mM
- MIC ([5]; Escherichia coli): 5 µM (≈ 2.22 µg/mL)
- MMC [6]: 0.001 mM
- MIC ([6]; Lactiplantibacillus plantarum): < 1 µM
- BIC90 ([7]; P. mirabilis ATCC 12453, 48 h): >2.25 mM
- IC50 ([7]; Proteus mirabilis, ATCC12453, P. mirabilis ATCC 12453, 48 h, read-out: BIC50): 1310 µM
- MMC [8]: 0.14 mM
- MIC ([8]; Pseudomonas aeruginosa, ATCC27853): 20 µM (≈ 8.89 µg/mL)
- BIC90 ([9]; P. aeruginosa ATCC 27853, 48 h): >2.25 mM
- IC50 ([9]; Pseudomonas aeruginosa, ATCC27853, P. aeruginosa ATCC 27853, 48 h, read-out: BIC50): > 2250 µM
- MMC [10]: 0.01 mM
- MMC [11]: 0.07 mM
- MIC ([11]; Proteus mirabilis, ATCC12453): 35 µM (≈ 15.6 µg/mL)
- MMC [12]: 0.07 mM
- MIC ([12]; Klebsiella pneumoniae): 9 µM (≈ 4 µg/mL)
- MMC [13]: <0.001 mM
- MIC ([13]; Staphylococcus aureus): < 1 µM
- BIC90 ([14]; S. aureus ATCC 25923, 48 h): >2.25 mM
- IC50 ([14]; Staphylococcus aureus, ATCC25923, S. aureus ATCC 25923, 48 h, read-out: BIC50): 560 µM
- MMC [15]: 0.035 mM
- MIC ([15]; Bacillus subtilis, ATCC6633): 5 µM (≈ 2.22 µg/mL)
- MMC [16]: 0.005 mM
- MIC ([16]; Bacillus subtilis): 2 µM (≈ 0.889 µg/mL)
- MMC [17]: 0.005 mM
- MIC ([17]; Staphylococcus aureus, ATCC25923): < 1 µM

Structure (SMILES): NNC(=O)c1cc(O)c(O)c(O)c1 [H-2, 3,4,5-trihydroxybenzohydrazide]
- inhibition at 25 µM [1]: 32 ± 0.1%
- inhibition at 40 µM [1]: 44.4 ± 1.7%
- inhibition at 50 µM [1]: 56 ± 1.1%
- inhibition at 75 µM [1]: 73.4 ± 0.3%
- inhibition at 100 µM [1]: 91.9 ± 0.2%
- IC50 [1]: 46 ± 0.9 µM
